# In patent publication US8575186B2, “Epiminocycloalkyl[b] indole derivatives as serotonin sub-type 6 (5-HT6) modulators and uses thereof” (Albany Molecular Research, Inc., priority 2009, dated 2013):
# Where a name gives a salt, the structure may show the parent alone. Read-outs that look alike come from different tables or passages of the source.
# Tests used:
# human 5-HT6 receptor = human 5-HT6 receptor (Homo sapiens (Human), UniProt P50406); test: radioligand binding assay (SPA format), [N-methyl-3H]-LSD; details: human 5-HT6 receptor membranes, 10 nM [3H]-LSD
# Chain of human 5-HT6 receptor (P50406 whole entry): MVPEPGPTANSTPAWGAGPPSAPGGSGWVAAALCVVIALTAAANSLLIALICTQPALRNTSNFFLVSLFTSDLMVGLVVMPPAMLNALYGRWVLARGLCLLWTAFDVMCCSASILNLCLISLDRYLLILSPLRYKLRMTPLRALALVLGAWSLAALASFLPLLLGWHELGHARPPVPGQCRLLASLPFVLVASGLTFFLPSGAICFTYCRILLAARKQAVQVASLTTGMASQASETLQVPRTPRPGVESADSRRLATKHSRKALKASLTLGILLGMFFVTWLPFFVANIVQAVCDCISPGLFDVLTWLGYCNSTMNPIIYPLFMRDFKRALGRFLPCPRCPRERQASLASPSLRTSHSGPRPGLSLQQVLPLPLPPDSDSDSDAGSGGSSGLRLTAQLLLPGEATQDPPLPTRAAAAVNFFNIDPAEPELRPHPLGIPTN
melting point,Compound,Ki (human 5-HT6 receptor; read-out: human 5HT6 Ki) [nM],also measured
175 to 177 °C,"COc1cc(S(=O)(=O)c2ccccc2)cc2c3c(n(C)c12)CC1CCC3N1.Cl (stereo not shown) [Example 83, 2-Phenylsulfonyl-4-methoxy-5-methyl-5,6,7,8,9,10-hexahydro-7,10-epiminocyclohepta[b]indole hydrochloride]",–,–
230 to 235 °C (dec.),"Cl.Cn1c2c(c3cc(S(=O)(=O)c4cccc(-c5ccccc5)c4)ccc31)C1CCC(C2)N1 (stereo not shown) [Example 57, 2-[(3-Phenyl)-phenyl]sulfonyl-5-methyl-5,6,7,8,9,10-hexahydro-7,10-epiminocyclohepta[b]indole hydrochloride]",–,–
254 to 256 °C,"Cc1cc(S(=O)(=O)c2cccc(F)c2)cc2c3c(n(C)c12)CC1CCC3N1.Cl (stereo not shown) [Example 72, 2-(3-Fluorophenyl)sulfonyl-4,5-dimethyl-5,6,7,8,9,10-hexahydro-7,10-epiminocyclohepta[b]indole hydrochloride]",–,–
187 to 189 °C,"CC(C)Oc1cc(S(=O)(=O)c2ccccc2)cc2c3c(n(C)c12)CC1CCC3N1.Cl (stereo not shown) [Example 85, 2-Phenylsulfonyl-4-isopropoxy-5-methyl-5,6,7,8,9,10-hexahydro-7,10-epiminocyclohepta[b]indole hydrochloride]",–,–
204 to 208 °C (dec.),"CN(C)c1cccc(S(=O)(=O)c2ccc3c(c2)c2c(n3C)CC3CCC2N3)c1.Cl (stereo not shown) [Example 45, 2-[(3-N,N-Dimethylamino)phenyl]sulfonyl-5-methyl-5,6,7,8,9,10-hexahydro-7,10-epiminocyclohepta[b]indole hydrochloride]",–,–
220 to 225 °C,"Cl.Cn1c2c(c3cc(S(=O)(=O)c4ccc(N)cc4)ccc31)C1CCC(C2)N1 (stereo not shown) [Example 53, 2-(4-Aminophenyl)sulfonyl-5-methyl-5,6,7,8,9,10-hexahydro-7,10-epiminocyclohepta[b]indole hydrochloride]",–,–
220 to 222 °C,"Cl.Cn1c2c(c3cc(S(=O)(=O)c4ccc5ccccc5c4)ccc31)C1CCC(C2)N1 (stereo not shown) [Example 50, 2-(2-Napthyl)sulfonyl-5-methyl-5,6,7,8,9,10-hexahydro-7,10-epiminocyclohepta[b]indole hydrochloride]",–,–
206 to 209 °C,"COc1ccc2c(ccn2S(=O)(=O)c2ccc3c(c2)c2c(n3C)CC3CCC2N3)c1.Cl (stereo not shown) [Example 66, 2-[1-(5-Methoxy)-indole]sulfonyl-5-methyl-5,6,7,8,9,10-hexahydro-7,10-epiminocyclohepta[b]indole hydrochloride]",–,–
218 to 220 °C,"Cl.Cn1c2c(c3cc(S(=O)(=O)n4ccc5cc(F)ccc54)ccc31)C1CCC(C2)N1 (stereo not shown) [Example 63, 2-[1-(5-Fluoro)-indole]sulfonyl-5-methyl-5,6,7,8,9,10-hexahydro-7,10-epiminocyclohepta[b]indole hydrochloride]",–,–
193 to 196 °C,"Cl.Cn1c2c(c3cc(S(=O)(=O)c4cccc(OC(F)(F)F)c4)ccc31)C1CCC(C2)N1 (stereo not shown) [Example 39, 2-(3-Trifluoromethoxyphenyl)sulfonyl-5-methyl-5,6,7,8,9,10-hexahydro-7,10-epiminocyclohepta[b]indole hydrochloride]",–,–
208 to 212 °C (dec.),"Cl.Cn1c2c(c3cc(S(=O)(=O)c4ccsc4)ccc31)C1CCC(C2)N1 (stereo not shown) [Example 56, 2-(3-Thienyl)sulfonyl-5-methyl-5,6,7,8,9,10-hexahydro-7,10-epiminocyclohepta[b]indole hydrochloride]",–,–
–,Cn1c2c(c3cc(S(=O)(=O)n4ccc5ccc(C#N)cc54)ccc31)C1CCC(C2)N1 (stereo not shown) [Example 200],0.75,–
–,CC(C)n1c2c(c3cc(S(=O)(=O)c4ccccc4)ccc31)C1CCC(C2)N1 (stereo not shown) [Example 181],284,–
–,CCOc1cc(S(=O)(=O)c2ccccc2)cc2c3c(n(C)c12)CC1CCC3N1 (stereo not shown) [Example 234],4.9,–
–,Cn1c2c(c3cc(S(=O)(=O)c4cc(C(F)(F)F)c5[nH]ccc5c4)ccc31)C1CCC(C2)N1 (stereo not shown) [Example 123],0.47,–
–,"Cn1c2c(c3cc(S(=O)(=O)c4ccc(CN)cc4)ccc31)C1CCC(C2)N1 (stereo not shown) [Example 33, 2-(4-Aminomethylphenyl)sulfonyl-5-methyl-5,6,7,8,9,10-hexahydro-7,10-epiminocyclohepta[b]indole dihydrochloride]",15,–
–,Cn1c2c(c3cc(S(=O)(=O)c4cccc5ccncc45)ccc31)C1CCC(C2)N1 (stereo not shown) [Example 131],13,–
–,Cn1c2c(c3cc(S(=O)(=O)c4ccccc4O)ccc31)C1CCC(C2)N1 (stereo not shown) [Example 105],100,–
–,Cn1c2c(c3cc(S(=O)(=O)c4ccccc4)cc(N4CCCC4)c31)C1CCC(C2)N1 (stereo not shown) [Example 156],52,–
–,COc1cc(S(=O)(=O)c2ccc3[nH]ccc3c2)cc2c3c(n(C)c12)CC1CCC3N1 (stereo not shown) [Example 145],0.31,–
–,Cn1c2c(c3cc(S(=O)(=O)c4cn(Cc5ccccc5)c5ccccc45)ccc31)C1CCC(C2)N1 (stereo not shown) [Example 102],0.71,–
–,Cn1c2c(c3cc(S(=O)(=O)c4cc(F)ccn4)ccc31)C1CCC(C2)N1 (stereo not shown) [Example 96],341,–

melting point,Compound,Ki (human 5-HT6 receptor; read-out: human 5HT6 Ki) [nM],also measured
–,Cn1c2c(c3cc(S(=O)(=O)c4ccccc4)cc(OCc4cccnc4)c31)C1CCC(C2)N1 (stereo not shown) [Example 155],129,–
211 to 214 °C,"Cl.Cn1c2c(c3cc(S(=O)(=O)c4cccc(C#N)c4)ccc31)C1CCC(C2)N1 (stereo not shown) [Example 43, 2-(3-Cyanophenyl)sulfonyl-5-methyl-5,6,7,8,9,10-hexahydro-7,10-epiminocyclohepta[b]indole hydrochloride]",–,–
200 to 205 °C,"Cl.Cn1c2c(c3cc(S(=O)(=O)c4ccc(C(F)(F)F)cc4)ccc31)C1CCC(C2)N1 (stereo not shown) [Example 29, 2-(4-Trifluoromethylphenyl)sulfonyl-5-methyl-5,6,7,8,9,10-hexahydro-7,10-epiminocyclohepta[b]indole hydrochloride]",–,–
–,CC(C)n1ccc2cc(S(=O)(=O)c3ccc4c(c3)c3c(n4C)CC4CCC3N4)ccc21 (stereo not shown) [Example 117],4.4,–
238 to 244 °C (dec.),"Cl.Cn1c2c(c3cc(S(=O)(=O)c4ccccc4)ccc31)C1CCC(C2)N1 (stereo not shown) [Example 27, 2-Phenylsulfonyl-5-methyl-5,6,7,8,9,10-hexahydro-7,10-epiminocyclohepta[b]indole hydrochloride]",–,–
–,Cc1cn(S(=O)(=O)c2ccc3c(c2)c2c(n3C)CC3CCC2N3)c2ccccc12 (stereo not shown) [Example 202],0.72,–
–,COc1cc(S(=O)(=O)c2cccc(F)c2)cc2c3c(n(C)c12)CC1CCC3N1 (stereo not shown) [Example 221],3.3,–
227 to 229 °C,"Cc1cc(S(=O)(=O)c2cccc(Cl)c2)cc2c3c(n(C)c12)CC1CCC3N1.Cl (stereo not shown) [Example 73, 2-(3-Chloro-phenyl)sulfonyl-4,5-dimethyl-5,6,7,8,9,10-hexahydro-7,10-epiminocyclohepta[b]indole hydrochloride]",–,–
–,Cn1c2c(c3cc(S(=O)(=O)c4cc(Cl)ccn4)ccc31)C1CCC(C2)N1 (stereo not shown) [Example 97],104,–
–,Cn1c2c(c3cc(S(=O)(=O)c4cccc(-c5cc[nH]n5)c4)ccc31)C1CCC(C2)N1 (stereo not shown) [Example 125],244,–
–,COc1cc(S(=O)(=O)c2cncc3ccccc23)cc2c3c(n(C)c12)CC1CCC3N1 (stereo not shown) [Example 232],9.6,–
–,COc1cc(S(=O)(=O)c2cccc(C(F)(F)F)c2)cc2c3c(n(C)c12)CC1CCC3N1 (stereo not shown) [Example 215],–,Ki (human 5-HT6 receptor; human 5HT6 Ki): 1.8 nM
–,CN1C2CCC1c1c(n(C)c3ccc(S(=O)(=O)c4ccc5[nH]ccc5c4)cc13)C2 (stereo not shown) [Example 183],0.42,–
–,Cn1c2c(c3cc(S(=O)(=O)c4ccc(C#N)cc4)ccc31)C1CCC(C2)N1 (stereo not shown) [Example 177],747,–
–,"Cn1c2c(c3cc(S(=O)(=O)c4cccc(Cl)c4)ccc31)C1CCC(C2)N1 (stereo not shown) [Example 36, 2-(3-Chlorophenyl)sulfonyl-5-methyl-5,6,7,8,9,10-hexahydro-7,10-epiminocyclohepta[b]indole hydrochloride]",–,"Ki (human 5-HT6 receptor; read-out: human 5HT6 Ki, hydrochloride): 1.8 nM"
225 to 228 °C,"Cc1cc(S(=O)(=O)n2ccc3ccccc32)cc2c3c(n(C)c12)CC1CCC3N1.Cl (stereo not shown) [Example 79, 2-[1-Indolesulfonyl]-4,5-dimethyl-5,6,7,8,9,10-hexahydro-7,10-epiminocyclohepta[b]indole]",–,–
–,Cn1c2c(c3cc(S(=O)(=O)c4ccc5sccc5c4)ccc31)C1CCC(C2)N1 (stereo not shown) [Example 104],5,–
228 to 230 °C,"Cc1cccc(S(=O)(=O)c2cc(C)c3c(c2)c2c(n3C)CC3CCC2N3)c1.Cl (stereo not shown) [Example 74, 2-(3-Methyl-phenyl)sulfonyl-4,5-dimethyl-5,6,7,8,9,10-hexahydro-7,10-epiminocyclohepta[b]indole hydrochloride]",–,–
–,COc1cc(S(=O)(=O)c2cccc(Cl)c2)cc2c3c(n(C)c12)CC1CCC3N1C (stereo not shown) [Example 226],1,–
–,COc1cc(S(=O)(=O)n2ccc3ccc(C#N)cc32)cc2c3c(n(C)c12)CC1CCC3N1 (stereo not shown) [Example 242],2.4,–
211 to 217 °C,"Cl.Cn1c2c(c3cc(S(=O)(=O)c4cccc(NC5CCCC5)c4)ccc31)C1CCC(C2)N1 (stereo not shown) [Example 48, 2-[(3-N-Cyclopentylamino)phenyl]sulfonyl-5-methyl-5,6,7,8,9,10-hexahydro-7,10-epiminocyclohepta[b]indole hydrochloride]",–,–
–,COc1cc(S(=O)(=O)n2ccc3ccc(C#N)cc32)cc2c3c(n(C)c12)CC1CCC3N1 (stereo not shown) [Example 243],0.58,–

Compound,melting point,Ki (human 5-HT6 receptor; read-out: human 5HT6 Ki) [nM],also measured
"CN(C)Cc1ccc(S(=O)(=O)c2ccc3c(c2)c2c(n3C)CC3CCC2N3)cc1 (stereo not shown) (as salt: hydrochloride) [Example 34, 2-[4-(N,N-Dimethylaminomethyl)phenyl]sulfonyl-5-methyl-5,6,7,8,9,10-hexahydro-7,10-epiminocyclohepta[b]indole dihydrochloride]",244 to 246 °C,–,–
"Cn1c2c(c3cc(S(=O)(=O)c4ccc(CN)cc4)ccc31)C1CCC(C2)N1 (stereo not shown) (as salt: hydrochloride) [Example 33, 2-(4-Aminomethylphenyl)sulfonyl-5-methyl-5,6,7,8,9,10-hexahydro-7,10-epiminocyclohepta[b]indole dihydrochloride]",237 to 239 °C,–,–
